Legend:
Assay type in all cases: cell-based
SSTR4 = target: T1, SSTR4 (Homo sapiens, UniProt P31391); assay: cAMP functional agonist assay, CHO cells expressing SSTR4; settings: CHO cells stably expressing SSTR4, cAMP; read-out: SSTR4 EC50
T1 construct: expressed in transfected cells
Procedure, shortened: (§1)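 CHO cells stably expressing the human or rodent somatostatin receptor subtype. Agonism measured as decrease in intracellular cAMP via Gi coupling.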

SSTR1 = target: T2, SSTR1 (Homo sapiens, UniProt P30872); assay: cAMP functional agonist assay, CHO cells expressing SSTR1; settings: CHO cells stably expressing SSTR1, cAMP; read-out: SSTR1 EC50
T2 construct: expressed in transfected cells
Procedure, shortened: as §1

[1] = target: T3, human somatostatin receptor subtype 2a (Homo sapiens, UniProt P30874); assay: cAMP assay for SSTR2a agonists (HTRF cAMP kit, NKH-477 stimulated); settings: CHO cells stably expressing human SSTR2a, 1.6 μM NKH-477
T3 construct: expressed in transfected cells
Experimental: Chinese hamster ovary (CHO) cells stably expressing one of the six human or rodent somatostatin receptor subtypes are grown to 85-100% confluence on standard tissue culture dishes in F12-Ham's growth media (Hyclone) with following additives: 10% donor calf serum (Hyclone), 200 U/mL penicillin (Hyclone), 200 μg/mL streptomycin (Hyclone), 20 mM HEPES (Hyclone), 200 μg/mL hygromycin Hyclone.
General overview: All SSTR subtypes are Gi coupled G-protein coupled receptors (GPCRs) that lead to decreases in intracellular cyclic AMP (cAMP) when activated by an agonist. Therefore, measurement of intracellular cAMP levels can be used to assess whether compounds of the invention are agonists of SSTR subtypes (John Kelly, Troy Stevens, W. Joseph Thompson, and Roland Seifert, Current Protocols in Pharmacology, 2005, 2.2.1-2.2). One example of an intracellular cAMP assay is described below.
Four days prior to the assay, 5000 Chinese hamster ovary (CHO) cells stably expressing the human somatostatin receptor subtype 2a are plated in each well of a 96-well tissue culture plate (Nest Biotech Cell, flat bottom with low evaporation tissue culture treated; Polystyrene; Non-Pyrogenic) in F12-Ham's media (100 μL/well) supplemented with 200 μg/mL of hygromycin. Incubate at 37 C, 5% CO2, 95% humidity for four days. The cells should reach full confluence. On the day of the assay, various dilutions of the compounds of the invention are prepared in assay buffer (HRTF cAMP kit, Cisbio) in the presence of 1.6 μM NKH-477 (a water-soluble forskolin derivative) and 50 μL of the dilutions are added to the cultured cells and incubated for 20 minutes at 37° C. […] 50 μL of lysis buffer (HRTF cAMP kit, Cisbio) is added to each well and incubated at room temperature for 30 minutes, after which 150 μL assay buffer is added to each well. In a 384-well plate (Grenier, 784-080), 10 μL of assay mixture is added to 10 μL of developing mixture, containing cAMP detection and visualization antibodies are added and the assay is allowed incubate for 1-24 hours at room temperature. The intracellular cAMP concentrations are then measured using a commercially available detection kit (for example, the cAMP HTRF kit, Cisbio). The measured intracellular cAMP concentrations are plotted vs. the concentration of the compounds of the invention and the EC50 of the compounds are calculated using standard methods.

SSTR3 = SSTR3 (UniProt P32745); assay: cAMP functional agonist assay, CHO cells expressing SSTR3; settings: CHO cells stably expressing SSTR3, cAMP
Procedure, shortened: (§2)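 CHO cells stably expressing a single somatostatin receptor subtype, grown to 85–100% confluence in F12-Ham's with 10% donor calf serum and hygromycin. Agonism assessed as a decrease in intracellular cAMP via Gi coupling.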

SSTR5 = target: T4, SSTR5 (Homo sapiens, UniProt P35346); assay: cAMP functional agonist assay, CHO cells expressing SSTR5; settings: CHO cells stably expressing SSTR5, cAMP
T4 construct: expressed in transfected cells
Procedure, shortened: as §2

T4 sequence (P35346 whole entry): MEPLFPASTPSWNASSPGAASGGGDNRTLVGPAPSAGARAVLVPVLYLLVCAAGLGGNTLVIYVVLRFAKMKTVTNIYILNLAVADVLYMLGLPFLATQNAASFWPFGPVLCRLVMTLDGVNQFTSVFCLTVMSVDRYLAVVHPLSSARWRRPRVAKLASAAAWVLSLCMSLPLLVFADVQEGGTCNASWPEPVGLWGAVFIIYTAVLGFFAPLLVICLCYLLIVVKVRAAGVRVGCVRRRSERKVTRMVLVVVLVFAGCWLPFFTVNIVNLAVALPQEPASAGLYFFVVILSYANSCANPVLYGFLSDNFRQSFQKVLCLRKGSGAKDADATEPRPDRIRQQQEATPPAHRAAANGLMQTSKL
T1 sequence (P31391 whole entry): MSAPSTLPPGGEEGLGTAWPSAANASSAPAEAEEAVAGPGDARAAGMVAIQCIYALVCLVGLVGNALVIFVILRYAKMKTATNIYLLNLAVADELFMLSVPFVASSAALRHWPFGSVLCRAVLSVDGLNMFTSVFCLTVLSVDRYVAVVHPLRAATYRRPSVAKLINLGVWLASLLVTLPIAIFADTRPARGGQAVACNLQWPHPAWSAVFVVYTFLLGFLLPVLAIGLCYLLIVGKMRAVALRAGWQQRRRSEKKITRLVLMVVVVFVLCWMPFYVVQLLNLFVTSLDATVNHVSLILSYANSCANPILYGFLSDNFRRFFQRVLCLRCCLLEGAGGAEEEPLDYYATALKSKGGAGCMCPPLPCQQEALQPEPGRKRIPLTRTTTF
SSTR3, sequence (P32745 whole entry): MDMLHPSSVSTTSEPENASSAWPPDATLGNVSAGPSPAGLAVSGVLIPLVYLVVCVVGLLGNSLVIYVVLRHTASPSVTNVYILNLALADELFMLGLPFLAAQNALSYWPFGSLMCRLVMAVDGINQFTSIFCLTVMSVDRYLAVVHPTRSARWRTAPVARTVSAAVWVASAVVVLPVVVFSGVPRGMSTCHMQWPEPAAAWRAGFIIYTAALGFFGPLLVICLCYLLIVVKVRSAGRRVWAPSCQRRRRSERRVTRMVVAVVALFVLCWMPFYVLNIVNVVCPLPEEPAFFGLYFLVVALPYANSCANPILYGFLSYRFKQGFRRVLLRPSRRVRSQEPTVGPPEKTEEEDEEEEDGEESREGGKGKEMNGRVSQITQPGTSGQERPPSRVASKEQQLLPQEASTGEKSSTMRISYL
T3 sequence (P30874 whole entry): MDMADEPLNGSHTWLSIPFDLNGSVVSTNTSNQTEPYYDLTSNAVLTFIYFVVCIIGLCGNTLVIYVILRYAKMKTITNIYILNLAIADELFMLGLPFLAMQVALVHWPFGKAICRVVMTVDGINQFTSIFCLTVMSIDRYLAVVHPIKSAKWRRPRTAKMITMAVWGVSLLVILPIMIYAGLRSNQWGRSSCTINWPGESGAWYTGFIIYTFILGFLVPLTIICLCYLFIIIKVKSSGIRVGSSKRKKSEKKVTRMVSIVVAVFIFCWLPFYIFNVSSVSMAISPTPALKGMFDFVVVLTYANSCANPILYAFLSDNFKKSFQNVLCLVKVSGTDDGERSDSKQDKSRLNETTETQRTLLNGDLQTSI
T2 sequence (P30872 whole entry): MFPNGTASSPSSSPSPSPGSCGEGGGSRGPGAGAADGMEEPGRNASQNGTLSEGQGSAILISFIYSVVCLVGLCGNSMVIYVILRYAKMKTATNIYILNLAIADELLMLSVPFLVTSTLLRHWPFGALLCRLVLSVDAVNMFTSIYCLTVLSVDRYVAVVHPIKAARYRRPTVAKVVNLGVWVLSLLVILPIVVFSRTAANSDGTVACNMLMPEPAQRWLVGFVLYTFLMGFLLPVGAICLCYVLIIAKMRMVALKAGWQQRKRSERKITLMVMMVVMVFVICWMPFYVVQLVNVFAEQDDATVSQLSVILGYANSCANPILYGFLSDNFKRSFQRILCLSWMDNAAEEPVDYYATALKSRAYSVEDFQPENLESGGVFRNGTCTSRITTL

| EC50 (SSTR4) [nM] | EC50 (SSTR1) [nM] | EC50 [1] [nM] | EC50 (SSTR3) [nM] | EC50 (SSTR5) [nM] | Compound |
| --- | --- | --- | --- | --- | --- |
| < 100 | – | < 100 | 100 to 10000 | > 10000 | CC[C@H](N)CN(C)Cc1c(-c2cc(C)cc(C)c2)cnc2ncn(-c3cccc(O)c3)c(=O)c12 [Compound A-61, 5-({[(2S)-2-aminobutyl](methyl)amino}methyl)-6-(3,5-dimethylphenyl)-3-(3-hydroxyphenyl)-3H,4H-pyrido[2,3-d]pyrimidin-4-one] |
| < 100 | > 10000 | < 100 | 100 to 10000 | – | CC[C@H](N)CN(C)Cc1c(-c2cc(C)cc(Cl)c2)cnc2ncn(-c3cc(O)cc(F)c3)c(=O)c12 [Compound A-66, 5-({[(2S)-2-aminobutyl](methyl)amino}methyl)-6-(3-chloro-5-methylphenyl)-3-(3-fluoro-5-hydroxyphenyl)-3H,4H-pyrido[2,3-d]pyrimidin-4-one] |
| < 100 | – | < 100 | 100 to 10000 | > 10000 | Cc1cc(Cl)cc(-c2cnc3ncn(-c4cc(O)cc(OC(F)(F)F)c4)c(=O)c3c2CN(C)C[C@@H]2CCCN2)c1 [Compound A-52, 6-(3-chloro-5-methylphenyl)-3-[3-hydroxy-5-(trifluoromethoxy)phenyl]-5-({methyl[(2S)-pyrrolidin-2-ylmethyl]amino}methyl)-3H,4H-pyrido[2,3-d]pyrimidin-4-one] |
| < 100 | – | < 100 | 100 to 10000 | > 10000 | Cc1cc(CO)cc(-c2cnc3ncn(-c4cccc(O)c4)c(=O)c3c2CN(C)C[C@@H]2CCCN2)c1 [Compound A-37, 6-[3-(hydroxymethyl)-5-methylphenyl]-3-(3-hydroxyphenyl)-5-({methyl[(2S)-pyrrolidin-2-ylmethyl]amino}methyl)-3H,4H-pyrido[2,3-d]pyrimidin-4-one] |

Further lines, the compound ahead of its results:

| Compound | EC50 (SSTR4) [nM] | EC50 (SSTR1) [nM] | EC50 [1] [nM] | EC50 (SSTR3) [nM] | EC50 (SSTR5) [nM] |
| --- | --- | --- | --- | --- | --- |
| Cc1cc(Cl)cc(-c2cnc3ncn(-c4cccc(O)c4)c(=O)c3c2CN(C)C[C@@H]2CCCCN2)c1 [Compound A-29, 6-(3-chloro-5-methylphenyl)-3-(3-hydroxyphenyl)-5-({methyl[(2S)-piperidin-2-ylmethyl]amino}methyl)-3H,4H-pyrido[2,3-d]pyrimidin-4-one] | < 100 | 100 to 10000 | < 100 | < 100 | – |
| CN(Cc1c(-c2cccc(Cl)c2)cnc2ncn(-c3cccc(O)c3)c(=O)c12)CC1CCCCN1 (stereo not drawn) [Compound A-24, 6-(3-chlorophenyl)-3-(3-hydroxyphenyl)-5-{[methyl(piperidin-2-ylmethyl)amino]methyl}-3H,4H-pyrido[2,3-d]pyrimidin-4-one] | < 100 | 100 to 10000 | < 100 | < 100 | – |
| CCN(Cc1c(-c2cc(C)cc(C)c2)cnc2ncn(-c3cccc(O)c3)c(=O)c12)C[C@H](C)N [Compound A-9, 5-({[(2S)-2-aminopropyl](ethyl)amino}methyl)-6-(3,5-dimethylphenyl)-3-(3-hydroxyphenyl)-3H,4H-pyrido[2,3-d]pyrimidin-4-one] | < 100 | 100 to 10000 | < 100 | < 100 | – |
| 3-[5-({[(2S)-2-aminobutyl](methyl)amino}methyl)-6-(3,5-dimethylphenyl)-4-oxo-3H,4H-pyrido[2,3-d]pyrimidin-3-yl]-5-fluorobenzamide [Compound A-64] | 100 to 10000 | – | < 100 | 100 to 10000 | 100 to 10000 |
| Cc1c(F)cccc1-c1cnc2ncn(-c3cccc(O)c3)c(=O)c2c1CN(C)CC1CCCCN1 (stereo not drawn) [Compound A-26, 6-(3-fluoro-2-methylphenyl)-3-(3-hydroxyphenyl)-5-{[methyl(piperidin-2-ylmethyl)amino]methyl}-3H,4H-pyrido[2,3-d]pyrimidin-4-one] | < 100 | – | < 100 | < 100 | 100 to 10000 |

— patent US9957267B2, “Somatostatin modulators and uses thereof” (Crinetics Pharmaceuticals, Inc., priority 2015, dated 2018)
